≈ marks a conversion by molar mass, not a printed value. Structures can show the parent of a compound that is named as a salt. Where two headings read alike, the source gives them in different places.
Key:
Assay in all cases: Antibacterial activity, microbroth dilution method (MIC)
[1] = tested on: control Gram-negative E. coli 25922 strain; type: cell-based, Escherichia coli; settings: for MIC: Escherichia coli
Description: (§1) The antibacterial activity from a microbroth dilution method may be presented as the minimum inhibitory concentration (MIC in μg/mL). The MIC value is the lowest concentration of drug which prevents macroscopically visible growth under test conditions.
(§2) Antibacterial activity of test compounds against the super sensitive Gram-negative Escherichia coli (E. coli) BAS849 bacterium, the control Gram-negative E. coli 25922 strain and the Gram-positive Staphylococcus aureus (S. aureus) 29213 bacterium are shown in Table 1.

[2] = tested on: Gram-positive Staphylococcus aureus (S. aureus) 29213; type: cell-based; settings: Gram-positive S. aureus 29213; for MIC: Staphylococcus aureus
Description: as §1, §2

[3] = tested on: super sensitive Gram-negative Escherichia coli (E. coli) BAS849; type: cell-based; settings: for MIC: Escherichia coli, read-out: MIC, E. coli BAS849
Description: as §1, §2

[4] = super sensitive Gram-negative E. coli BAS849, microbroth dilution

Row | Structure (SMILES) | MIC [1] | MIC [2] | MIC [3, 4] | MIC [3] | MIC, E. coli 25922 [1] | MIC, S. aureus 29213 [2] | MIC, E. coli BAS849 [3, 4]
1 | CCNCc1cc2cc3c(cc2n1C)[C@H](O)[C@H](O)Cc1c-3[nH]c(=O)c(C(=O)O)c1O.Cl (relative stereo) [Cpd 71, (cis)-10-((ethylamino)methyl)-4,6,7-trihydroxy-9-methyl-2-oxo-1,2,5,6,7,9-hexahydropyrido[3′,2′:6,7]cyclohepta[1,2-f]indole-3-carboxylic acid hydrochloride] | 12.5 to 150 µg/mL | 12.5 to 150 µg/mL | 12.5 to 150 µg/mL |  |  |  | 
2 | CN(C)c1ccc2c(c1)CCc1cc(C(=O)O)c(=O)[nH]c1-2 [Cpd 1, 8-(dimethylamino)-2-oxo-1,2,5,6-tetrahydrobenzo[h]quinoline-3-carboxylic acid] | 12.5 to 150 µg/mL (≈ 44 to 528 µM) | 12.5 to 150 µg/mL (≈ 44 to 528 µM) | 3.5 to 12.5 µg/mL (≈ 12.3 to 44 µM) |  |  |  | 
3 | CN(C)c1ccc2c(c1)CCCc1cc(C(=O)O)c(=O)[nH]c1-2 [Cpd 2, 9-(dimethylamino)-2-oxo-2,5,6,7-tetrahydro-1H-benzo[6,7]cyclohepta[1,2-b]pyridine-3-carboxylic acid] | 12.5 to 150 µg/mL (≈ 41.9 to 503 µM) | 12.5 to 150 µg/mL (≈ 41.9 to 503 µM) | < 1 µg/mL |  |  |  | 
4 | CN(C)c1ccc2c(c1)CCCc1c-2[nH]c(=O)c(C(=O)O)c1O [Cpd 3, 9-(dimethylamino)-4-hydroxy-2-oxo-2,5,6,7-tetrahydro-1H-benzo[6,7]cyclohepta[1,2-b]pyridine-3-carboxylic acid] | 3.5 to 12.5 µg/mL (≈ 11.1 to 39.8 µM) | 3.5 to 12.5 µg/mL (≈ 11.1 to 39.8 µM) | < 1 µg/mL |  |  |  | 
5 | CN(C)c1ccc2c(c1)CCCCc1cc(C(=O)O)c(=O)[nH]c1-2 [Cpd 4, 10-(dimethylamino)-2-oxo-1,2,5,6,7,8-hexahydrobenzo[7,8]cycloocta[1,2-b]pyridine-3-carboxylic acid] | 12.5 to 150 µg/mL (≈ 40 to 480 µM) | 12.5 to 150 µg/mL (≈ 40 to 480 µM) | < 1 µg/mL |  |  |  | 
6 | CN(C)c1ccc2c(c1)CCCCc1c-2[nH]c(=O)c(C(=O)O)c1O [Cpd 5, 10-(dimethylamino)-4-hydroxy-2-oxo-1,2,5,6,7,8-hexahydrobenzo[7,8]cycloocta[1,2-b]pyridine-3-carboxylic acid] | 12.5 to 150 µg/mL (≈ 38.1 to 457 µM) | 3.5 to 12.5 µg/mL (≈ 10.7 to 38.1 µM) | < 1 µg/mL |  |  |  | 
7 | CN(C)C1CCN(c2ccc3c(c2)CCCc2c-3[nH]c(=O)c(C(=O)O)c2O)C1.Cl (stereo not drawn) [Cpd 6, 9-(3-(dimethylamino)pyrrolidin-1-yl)-4-hydroxy-2-oxo-2,5,6,7-tetrahydro-1H-benzo[6,7]cyclohepta[1,2-b]pyridine-3-carboxylic acid hydrochloride] | 3.5 to 12.5 µg/mL | 12.5 to 150 µg/mL | < 1 µg/mL |  |  |  | 
8 | O=C(O)c1c(O)c2c([nH]c1=O)-c1ccc(N3CCCC3)cc1CCC2 [Cpd 7, 4-hydroxy-2-oxo-9-(pyrrolidin-1-yl)-2,5,6,7-tetrahydro-1H-benzo[6,7]cyclohepta[1,2-b]pyridine-3-carboxylic acid] | 12.5 to 150 µg/mL (≈ 36.7 to 441 µM) | 3.5 to 12.5 µg/mL (≈ 10.3 to 36.7 µM) | < 1 µg/mL |  |  |  | 
9 | CNC1CCN(c2ccc3c(c2)CCCc2c-3[nH]c(=O)c(C(=O)O)c2O)C1.Cl (stereo not drawn) [Cpd 8, 4-hydroxy-9-(3-(methylamino)pyrrolidin-1-yl)-2-oxo-2,5,6,7-tetrahydro-1H-benzo[6,7]cyclohepta[1,2-b]pyridine-3-carboxylic acid hydrochloride] | 3.5 to 12.5 µg/mL | 12.5 to 150 µg/mL | 1 to 3.5 µg/mL |  |  |  | 
10 | N[C@@H]1[C@H]2CN(c3ccc4c(c3)CCCc3c-4[nH]c(=O)c(C(=O)O)c3O)C[C@@H]12 [Cpd 9, 9-((cis,cis)-6-amino-3-azabicyclo[3.1.0]hexan-3-yl)-4-hydroxy-2-oxo-2,5,6,7-tetrahydro-1H-benzo[6,7]cyclohepta[1,2-b]pyridine-3-carboxylic acid trifluoroacetate] | < 1 µg/mL | 3.5 to 12.5 µg/mL |  | < 1 µg/mL |  |  | 
11 | CN(Cc1ccccc1)[C@H]1[C@@H]2CN(c3ccc4c(c3)CCCc3c-4[nH]c(=O)c(C(=O)O)c3O)C[C@@H]21 [Cpd 10, 9-((cis,cis)-6-(benzyl(methyl)amino)-3-azabicyclo[3.1.0]hexan-3-yl)-4-hydroxy-2-oxo-2,5,6,7-tetrahydro-1H-benzo[6,7]cyclohepta[1,2-b]pyridine-3-carboxylic acid hydrochloride] | 12.5 to 150 µg/mL | 1 to 3.5 µg/mL | 3.5 to 12.5 µg/mL |  |  |  | 
12 | CN[C@H]1[C@@H]2CN(c3ccc4c(c3)CCCc3c-4[nH]c(=O)c(C(=O)O)c3O)C[C@@H]21 [Cpd 11, 4-hydroxy-9-((cis,cis)-6-(methylamino)-3-azabicyclo[3.1.0]hexan-3-yl)-2-oxo-2,5,6,7-tetrahydro-1H-benzo[6,7]cyclohepta[1,2-b]pyridine-3-carboxylic acid hydrochloride] | 1 to 3.5 µg/mL | 3.5 to 12.5 µg/mL | < 1 µg/mL |  |  |  | 
13 | CC1CCc2cc(N3CCC(N(C)C)C3)ccc2-c2[nH]c(=O)c(C(=O)O)c(O)c21.Cl (stereo not drawn) [Cpd 12, 9-(3-(dimethylamino)pyrrolidin-1-yl)-4-hydroxy-5-methyl-2-oxo-2,5,6,7-tetrahydro-1H-benzo[6,7]cyclohepta[1,2-b]pyridine-3-carboxylic acid hydrochloride] | 12.5 to 150 µg/mL | 12.5 to 150 µg/mL | 1 to 3.5 µg/mL |  |  |  | 
14 | CC1CCc2cc(N3C[C@@H]4[C@@H](N)[C@@H]4C3)ccc2-c2[nH]c(=O)c(C(=O)O)c(O)c21 (stereo partly drawn) [Cpd 13, 9-((cis,cis)-6-amino-3-azabicyclo[3.1.0]hexan-3-yl)-4-hydroxy-5-methyl-2-oxo-2,5,6,7-tetrahydro-1H-benzo[6,7]cyclohepta[1,2-b]pyridine-3-carboxylic acid hydrochloride] | 1 to 3.5 µg/mL | 3.5 to 12.5 µg/mL | < 1 µg/mL |  |  |  | 
15 | NC1C2CN(c3ccc4c(c3)C(O)CCc3c-4[nH]c(=O)c(C(=O)O)c3O)CC12.O=C(O)C(F)(F)F (stereo not drawn) [Cpd 14, 9-((cis,cis)-6-amino-3-azabicyclo[3.1.0]hexan-3-yl)-4,7-dihydroxy-2-oxo-2,5,6,7-tetrahydro-1H-benzo[6,7]cyclohepta[1,2-b]pyridine-3-carboxylic acid trifluoroacetate salt] |  |  |  |  | * (an MIC value between >12.5 μg/mL and ≦150 μg/mL) | * (an MIC value between >12.5 μg/mL and ≦150 μg/mL) | * (an MIC value between >12.5 μg/mL and ≦150 μg/mL)
16 | CN(C)C1CCN(c2ccc3c(c2)C(O)CCc2c-3[nH]c(=O)c(C(=O)O)c2O)C1.Cl (stereo not drawn) [Cpd 15, 9-(3-(dimethylamino)pyrrolidin-1-yl)-4,7-dihydroxy-2-oxo-2,5,6,7-tetrahydro-1H-benzo[6,7]cyclohepta[1,2-b]pyridine-3-carboxylic acid hydrochloride] | 12.5 to 150 µg/mL | 12.5 to 150 µg/mL | 12.5 to 150 µg/mL |  |  |  | 
17 | Cn1ccc2cc3c(cc21)C=CCc1c-3[nH]c(=O)c(C(=O)O)c1O [Cpd 16, 4-hydroxy-9-methyl-2-oxo-1,2,5,9-tetrahydropyrido[3′,2′:6,7]cyclohepta[1,2-f]indole-3-carboxylic acid] | 1 to 3.5 µg/mL (≈ 3.1 to 10.9 µM) | 1 to 3.5 µg/mL (≈ 3.1 to 10.9 µM) | < 1 µg/mL |  |  |  | 
18 | Cn1ccc2cc3c(cc21)CCCc1c-3[nH]c(=O)c(C(=O)O)c1O [Cpd 17, 4-hydroxy-9-methyl-2-oxo-1,2,5,6,7,9-hexahydropyrido[3′,2′:6,7]cyclohepta[1,2-f]indole-3-carboxylic acid] | 1 to 3.5 µg/mL (≈ 3.08 to 10.8 µM) | 1 to 3.5 µg/mL (≈ 3.08 to 10.8 µM) | < 1 µg/mL |  |  |  | 
19 | Cn1ccc2cc3c(c(F)c21)CCCc1c-3[nH]c(=O)c(C(=O)O)c1O [Cpd 18, 8-fluoro-4-hydroxy-9-methyl-2-oxo-1,2,5,6,7,9-hexahydropyrido[3′,2′:6,7]cyclohepta[1,2-f]indole-3-carboxylic acid] | 3.5 to 12.5 µg/mL (≈ 10.2 to 36.5 µM) | 1 to 3.5 µg/mL (≈ 2.92 to 10.2 µM) | < 1 µg/mL |  |  |  | 
20 | CCNCc1cc2cc3c(cc2n1C)Cc1c-3[nH]c(=O)c(C(=O)O)c1O.Cl [Cpd 19, 2-((ethylamino)methyl)-8-hydroxy-1-methyl-6-oxo-1,5,6,9-tetrahydropyrido[3′,2′:4,5]cyclopenta[1,2-f]indole-7-carboxylic acid hydrochloride] | 12.5 to 150 µg/mL | 12.5 to 150 µg/mL | 12.5 to 150 µg/mL |  |  |  | 
21 | CNCc1cc2cc3c(cc2n1C)CCc1c-3[nH]c(=O)c(C(=O)O)c1O.Cl [Cpd 20, 4-hydroxy-8-methyl-9-((methylamino)methyl)-2-oxo-2,5,6,8-tetrahydro-1H-indolo[6,5-h]quinoline-3-carboxylic acid hydrochloride] | 3.5 to 12.5 µg/mL | 12.5 to 150 µg/mL | 1 to 3.5 µg/mL |  |  |  | 
22 | Cl.Cn1c(CN2CCC2)cc2cc3c(cc21)CCc1c-3[nH]c(=O)c(C(=O)O)c1O [Cpd 21, 9-(azetidin-1-ylmethyl)-4-hydroxy-8-methyl-2-oxo-2,5,6,8-tetrahydro-1H-indolo[6,5-h]quinoline-3-carboxylic acid hydrochloride] | 3.5 to 12.5 µg/mL | 12.5 to 150 µg/mL | 1 to 3.5 µg/mL |  |  |  | 
23 | CNCc1cc2cc3c(cc2n1C)CCCc1c-3[nH]c(=O)c(C(=O)O)c1O.Cl [Cpd 22, 4-hydroxy-9-methyl-10-((methylamino)methyl)-2-oxo-1,2,5,6,7,9-hexahydropyrido[3′,2′:6,7]cyclohepta[1,2-f]indole-3-carboxylic acid hydrochloride] | < 1 µg/mL | 3.5 to 12.5 µg/mL | < 1 µg/mL |  |  |  | 
24 | Cl.Cn1c(CNC2CCC2)cc2cc3c(cc21)CCCc1c-3[nH]c(=O)c(C(=O)O)c1O [Cpd 23, 10-((cyclobutylamino)methyl)-4-hydroxy-9-methyl-2-oxo-1,2,5,6,7,9-hexahydropyrido[3′,2′:6,7]cyclohepta[1,2-f]indole-3-carboxylic acid hydrochloride] | < 1 µg/mL | 3.5 to 12.5 µg/mL | < 1 µg/mL |  |  |  | 
25 | Cl.Cn1c(CN2CCC2)cc2cc3c(cc21)CCCc1c-3[nH]c(=O)c(C(=O)O)c1O [Cpd 24, 10-(azetidin-1-ylmethyl)-4-hydroxy-9-methyl-2-oxo-1,2,5,6,7,9-hexahydropyrido[3′,2′:6,7]cyclohepta[1,2-f]indole-3-carboxylic acid hydrochloride] | < 1 µg/mL | 3.5 to 12.5 µg/mL | < 1 µg/mL |  |  |  | 

— patent US20150038438A1, “ANTIBACTERIAL COMPOUNDS AND METHODS FOR USE” (PTC THERAPEUTICS, INC., priority 2011, published 2015)
